Measured values taken from PubChem BioAssay (NCI).
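A five-concentration, 48-hour dose response in 96-well plates underlies each endpoint, interpolated linearly between surrounding concentrations. TGI: total growth inhibition.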

Tests used:
Experiment in all cases: inhibition of tumour cell growth, NCI panel, 48 h
[1] = system: PC-3 prostate
[2] = system: UACC-257 melanoma
[3] = system: SW-620 colon
[4] = system: NCI-H23 lung
[5] = system: MCF7 breast
[6] = system: RXF 393 renal
[7] = system: ACHN renal
[8] = system: SK-MEL-2 melanoma
[9] = system: TK-10 renal
[10] = system: IGROV1 ovarian

SMILES | TGI [1] [µM] | TGI [2] [µM] | TGI [3] [µM] | TGI [4] [µM] | TGI [5] [µM] | TGI [6] [µM] | TGI [7] [µM] | TGI [8] [µM] | TGI [9] [µM] | TGI [10] [µM]
CC1=CP(=O)(c2c(C(C)C)cc(C(C)C)cc2C(C)C)CCC1Cl (stereo not given) | 28 | 24.9 | 69.9 | 39.4 | 35.5 | 31.5 | 31.5 | 31.4 | 30.7 | 40.9
CCOC(=O)C1(C#N)CC1 | > 100 | > 100 | > 100 | > 100 | > 100 | > 100 | > 100 | > 100 | > 100 | > 100
C/C(=N\O)c1cccc[n+]1Cc1ccccc1 | > 100 | > 100 | > 100 | > 100 | > 100 | > 100 | > 100 | > 100 | > 100 | > 100
CCN1CCC(CNC(=O)c2ccc(N)cc2)N1CC (stereo not given) | > 100 | > 100 | > 100 | > 100 | > 100 | > 100 | > 100 | > 100 | > 100 | > 100
COc1cc2c(/C=C3/C(=O)N(C)c4ccc(O)cc43)c(Cl)[nH]c2cc1C | 20.8 | 23.5 | 21.3 | 3.28 | 33.4 | 23.3 | 16.8 | 17.9 | 20.7 | 19.9
CN(CCNC(=O)c1c[nH]c2c1Cc1ccccc1-2)CCNC(=O)c1c[nH]c2c1Cc1ccccc1-2 | 41.9 | > 100 | > 100 | > 100 | 86 | > 100 | > 100 | 52.1 | > 100 | > 100
O=C(O)[C@H](CCC[C@H]1C(=O)O[C@H](c2ccccc2)[C@H](c2ccccc2)N1C(=O)OCc1ccccc1)N[C@@H](c1ccccc1)[C@H](O)c1ccccc1 | > 100 | > 100 | 68.5 | 85.4 | > 100 | 47.9 | > 100 | 40.8 | > 100 | > 100
CN(CCc1ccccn1)C(=S)N/N=C(\c1ccccc1)c1ccccn1 | 6.67 | 1.94 | 20.2 | 4.26 | > 100 | 2.83 | 1.92 | 4.35 | 3.27 | 1.57
CC1(C)COC2=C(C1)C(=O)c1ccccc1C2=O | 3.58 | 2.11 | 4.03 | 3.46 | 2.99 | 3.51 | 2.9 | 3.88 | 3.19 | 3.45
O=C(NO)NCCCl | > 100 | > 100 | > 100 | > 100 | > 100 | > 100 | > 100 | > 100 | > 100 | > 100
O=C(/C(=C\I)c1ccccc1)c1ccccc1 | 7.38 | 15.8 | 9.93 | 25.9 | 4.22 | 11.7 | 25.7 | 21.4 | 29.8 | 26.3
Brc1cccc(C2ON=C(c3ccccc3)N2C23CC4CC(CC(C4)C2)C3)c1 (stereo not given) | > 10 | > 10 | > 10 | > 10 | > 10 | > 10 | > 10 | > 10 | > 10 | > 10
O=C(Cn1c(C(=O)c2ccccc2)nc2ccccc21)c1ccccc1 | > 100 | > 100 | > 100 | > 100 | > 100 | > 100 | > 100 | > 100 | > 100 | > 31.6
COc1ccccc1C1(c2c(OC)c(=O)c2=O)SCCCS1 | > 100 | > 100 | > 100 | > 100 | > 100 | > 100 | > 100 | > 100 | > 100 | > 100
COC1(CC[C@@H](C)COC2OC(CO)C(O)C(O)C2O)O[C@H]2C[C@H]3[C@@H]4CC=C5C[C@@H](OC6OC(CO)C(O)C(OC7OC(CO)C(O)C(O)C7O)C6OC6OC(C)C(O)C(O)C6O)CC[C@]5(C)[C@H]4CC[C@]3(C)[C@H]2[C@@H]1C (stereo not given in full) | 21.4 | 26.3 | 6.51 | 28.2 | 37.6 | 19.5 | 30.1 | 29.2 | 43.8 | 19.8
Cc1ccc2nc(-c3ccc(C(C)(C)C)cc3)oc(=O)c2c1 | 69.6 | 46.2 | > 100 | 68.1 | 63.1 | 88.5 | 36.6 | 56.7 | > 100 | 87.6
C/C(=N\Nc1nc2ccccc2s1)c1cc2ccccc2cn1 | > 100 | 57.8 | > 100 | 18.1 | > 100 | 16 | > 100 | > 100 | > 100 | 16
